Here are results for one compound from US20060014704A1, “Compounds and their preparation for the treatment of Alzheimer's disease by inhibiting beta-amyloid peptide production” (priority 2004, published 2006).

As a reminder, the IC50 is the concentration at which inhibition is half-maximal.

Assay [1] relates to Aβ40 and Aβ42 secretion, primary embryonic cortical neurons. As to the kind of experiment: Aβ secretion in primary embryonic cortical neurons derived from Tg2576 transgenic mice. It is filed as cell-based, mouse. The source says: Treatment of Rk1 and Rg3 decreased the level of secreted Aβ40 and Aβ42.
The subject of assay [2] is Aβ40 and Aβ42 production, CHO cells stably transfected with human APP695. As to the kind of experiment: Secreted Aβ40/Aβ42 ELISA in CHO cells expressing human APP (CHO-APP cells). It is filed as cell-based, Chinese hamster. Details: key to Aβ42-lowering activity: Aβ42-lowering activity (“Yes”); no profound effects (“No”); non-determined (“ND”); Ginsenosides that affected cell viability are indicated as “Cytotoxic.”. The method, then: The CHO cells were treated with the indicated compounds (at 50 μg/ml) for 8 hrs. Aβ42 levels in the medium were measured by ELISA and normalized to intracellular full-length APP.
The potential effects of ginsenosides and their analogues in treating AD were examined. First, a number of ginsenosides were screened based on their effects on Aβ generation. The effects of various ginsenosides on Aβ (e.g., Aβ40 and Aβ42) production was initially accessed by incubating the Chinese hamster ovary (CHO) cells expressing human APP(CHO-APP cells) with each ginsenoside purified from unprocessed ginseng (known as “white ginseng”). These representative ginsenosides included Rb1, Rb2, Rc, Rd, Re, Re, Rg1 and Rg2 and differ in their side chains and sugar moieties.
After 8 hours of incubation, the media were collected and the levels of secreted Aβ40 and Aβ42 were determined by ELISA.
Background: An ELISA detects its analyte on a solid surface through an enzyme-linked reagent.

“Also recorded” adds a separate entry of the source.

For `C=C(CCC=C(C)C)[C@H]1CC[C@]2(C)[C@@H]1[C@H](O)C[C@@H]1[C@@]3(C)CC[C@H](O[C@@H]4O[C@H](CO)[C@@H](O)[C@H](O)[C@H]4O[C@@H]4O[C@H](CO)[C@@H](O)[C@H](O)[C@H]4O)C(C)(C)[C@@H]3CC[C@]12C` [Rk1], in assay [1], the “level of secreted Aβ40” value is recorded as “decreased” and the “level of secreted Aβ42” value is on record as “decreased”. Also, the “generation of Aβ42 (Aβ42 levels in the medium, ELISA, normalized to intracellular full-length APP)” value in assay [2] (50 μg/ml, 8 hrs, FIG. 4) is on record as “reduce the generation of Aβ42”. Moreover, the “Aβ42-lowering effect compared with other agents” value in assay [2] (CHO-APP cells) is “most effective”. In addition, in assay [2] (CHO-APP cells, FIG. 12A, read-out: IC50 of Aβ42 lowering activity), the IC50 is about 20 µM. Further, in assay [2] (FIG. 6 / FIG. 12B), the “preference for Aβ42 vs. Aβ40 in cell-based assay” value was “preferentially reduced Aβ42 (vs. Aβ40); also recorded: preferentially lowers Aβ42 (vs. Aβ40); also recorded: rather selective to Aβ42; also recorded: primarily affect Aβ42 production”. The “Aβ42 in the medium, dose-response” value in assay [2] (dose-dependent, FIG. 5 / FIG. 12A) is “reduced Aβ42; also recorded: lower Aβ42 in a dose-dependent manner”. For the same compound, the “production of Aβ42 in cells” value in assay [2] (general statement) is on record as “lower the production of Aβ42”. Moreover, the “concentration at which secretion of Aβ40 was affected” value in assay [2] (only at very high concentration) is about 100 µM. Further, in assay [2] (overnight treatment, FIG. 12B), the Aβ40 production entry is “slightly affected” and the Aβ42 production entry is “reduce Aβ42 production”. Moreover, the Aβ42-lowering activity result in assay [2] (summary of Tables 1-3) is listed as “Yes”.
